For data set [1], the target named is T1, bovine pancreas α-chymotrypsin (Bos taurus, UniProt P00766).
T1 construct: bovine pancreas α-chymotrypsin (product of Sigma Chemical Co., TypeII); purchased Sigma Chemical Co. TypeII; host or cells: bovine pancreas
The data set is described as follows: Inhibitory activity against chymotrypsin (Ang I conversion, HPLC). It is filed as biochemical. Here is the method:
(§1) After completion of the reaction, each liquid reaction mixture was subjected to high performance liquid chromatography on Develosil ODS-5 (product of Nomura Kagaku, 4.6 mm across×150 mm long) to develop it at a linear concentration gradient that the concentration of acetonitrile in 0.05% trifluoroacetic acid (hereinafter abbreviated as "TFA") is increased from 0% to 60% in 10 minutes at a flow rate of 2.0 ml/min. Monitoring was performed by the absorbance measurements at 210 nm. Peaks were identified by comparison with standard solutions of Ang I and Ang II. The areas of the peaks were determined by an integrator to quantitate Ang I and Ang II, thereby calculating chymase activity. The inhibitory activity against chymase was determined by calculating an inhibition rate, median inhibitory concentration (IC50) on the basis of the value in the blank test.
To 12 μl of a 20 mM Tris-hydrochloric acid buffer (pH 7.5) containing 2M KCl, were added 8 μl of a solution with bovine pancreas α-chymotrypsin (product of Sigma Chemical Co., TypeII) dissolved at a concentration of 8 μg/ml in a 20 mM aqueous solution of CaCl2 containing 1 mM HCl, and 5 μl of a DMSO solution of a sample to be tested, and the resultant mixture was preincubated at 37° C. for 10 minutes and then added with 25 μl of a 1 mM solution of Ang I, followed by incubation at 37° C. for 15 minutes. Then, 50 μl of 30% acetic acid were added to stop the enzyme reaction. On the other hand, 5 μl of DMSO were added in place of the solution of the test sample to similarly conduct a reaction as a blank test. After completion of the reaction, each liquid reaction mixture was treated by high performance liquid chromatography in the same manner as in Test Example 1 to quantitate Ang I and Ang II, thereby calculating chymotripsin activity. The inhibitory activity against chymotrypsin was determined by calculating an inhibition rate, median inhibitory concentration (IC50) on the basis of the value in the blank test.

In another data set the target is T2, Human cardiac chymase (Homo sapiens, UniProt P23946).
T2 construct: Human cardiac chymase was purified according to the process of Urata et al; from tissue; host or cells: human heart (cardiac)
T2 sequence (P23946 22-247): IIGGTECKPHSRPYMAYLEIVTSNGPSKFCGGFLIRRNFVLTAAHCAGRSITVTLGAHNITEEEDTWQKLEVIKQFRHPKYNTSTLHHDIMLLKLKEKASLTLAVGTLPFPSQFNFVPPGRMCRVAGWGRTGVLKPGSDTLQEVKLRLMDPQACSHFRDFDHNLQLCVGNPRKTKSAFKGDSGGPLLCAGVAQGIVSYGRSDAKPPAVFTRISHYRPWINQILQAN
Description: Inhibitory activity against chymase (Ang I to Ang II conversion, HPLC). It is filed as biochemical. How it is done: Human cardiac chymase was purified according to the process of Urata et al. (see the literature described above), and the inhibitory activities of the hydantoin compounds according to the present invention against the chymase were determined in the following manner. Namely, 10 μl of the purified chymase and 5 μl of a solution of a sample to be tested in dimethyl sulfoxide (hereinafter abbreviated as "DMSO") were added to 10 μl of a 20 mM Tris-hydrochloric acid buffer (pH 7.5) containing 2M KCl, and the resultant mixture was preincubated at 37° C. for 10 minutes and then added with 25 μl of a 1 mM solution of Ang I, followed by incubation at 37° C. for 30 minutes. Then, 50 μl of 30% acetic acid were added to stop the enzyme reaction. On the other hand, 5 μl of DMSO were added in place of the solution of the test sample to similarly conduct a reaction as a blank test.
as §1

The target in the next data set is T3, cathepsin G (Homo sapiens, UniProt P08311).
T3 construct: cathepsin G (product of Calbiochem Co.) derived from human neutrophil; purchased Calbiochem Co; host or cells: human neutrophil
T3 sequence (P08311 21-244 limits assumed): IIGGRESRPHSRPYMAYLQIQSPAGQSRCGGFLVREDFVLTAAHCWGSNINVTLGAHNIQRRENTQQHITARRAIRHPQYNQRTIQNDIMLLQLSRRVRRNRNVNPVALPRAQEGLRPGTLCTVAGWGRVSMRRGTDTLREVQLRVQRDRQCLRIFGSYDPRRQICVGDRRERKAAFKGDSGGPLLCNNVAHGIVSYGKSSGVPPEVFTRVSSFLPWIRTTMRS
Description: Inhibitory activity against cathepsin G (Ang I to Ang II conversion, HPLC). It is filed as biochemical. Here is the method: as §1
To a 20 mM Tris-hydrochloric acid buffer (pH 7.5) containing 2M KCl, were added 20 μl of a solution with cathepsin G (product of Calbiochem Co.) derived from human neutrophil dissolved at a concentration of 2 μg/ml in the same buffer, and 5 μl of a DMSO solution of a sample to be tested, and the resultant mixture was preincubated at 37° C. for 10 minutes and then added with 25 μl of a 1 mM solution of Ang I, followed by incubation at 37° C. for 30 minutes. Then, 50 μl of 30% acetic acid were added to stop the enzyme reaction. On the other hand, 5 μl of DMSO were added in place of the solution of the test sample to similarly conduct a reaction as a blank test. […] The inhibitory activity against cathepsin G was determined by calculating an inhibition rate, median inhibitory concentration (IC50) on the basis of the value in the blank test.

A short description of the next data set: in vivo. The settings on record: mouse, po.
The next data set deals with chymase. The settings on record: literature, Okunishi et al.; cited from earlier work.
For data set [2] the following is noted: cited from earlier work.
Data set [3] relates to vascular restenosis after the operation of PTCA. The settings on record: random multifacility clinical study, Circulation 1992; cited from earlier work.
[4] abbreviates: bovine pancreas, 37° C., pH 7.5, Ang I substrate, read-out: Inhibitory activities against enzymes (IC50), Chymotrypsin.
Setting [5] is: 37° C., pH 7.5, Ang I substrate, read-out: Inhibitory activities against enzymes (IC50), Chymase.
[6] abbreviates: human neutrophil cathepsin G, 37° C., pH 7.5, Ang I substrate, read-out: Inhibitory activities against enzymes (IC50), Cathepsin.

This is an account of results in patent US5691335A, “Imidazolidine derivative and use thereof” (Suntory Limited, priority 1994, dated 1997).

Read-outs that look alike come from different tables or passages of the source.

For `O=C1CN(c2ccc(Cl)cc2)C(=O)N1S(=O)(=O)c1ccc(Cl)cc1` [Compound 1, 3-(4-chlorobenzenesulfonyl)-1-(4-chlorophenyl)imidazolidin-2,4-dione], the figures for the IC50 (in data set [1] (setting [4]); at Human cardiac chymase (setting [5]); at cathepsin G (setting [6])) were 0.5 µM, 0.3 µM and 1.5 µM, respectively. For the same compound, in “in vivo”, the median lethal dose (LD50) at 24 h was at least 1000 mg/kg. In addition, the selectivity ratio at 24 h in the data set “in vivo” was at least 50.

With `Cc1ccccc1S(=O)(=O)N1C(=O)CN(c2ccccc2)C1=O` [Compound 2, 1-phenyl-3-(2-toluenesulfonyl)-imidazolidin-2,4-dione], in “in vivo”, the median lethal dose (LD50) at 24 h was at least 1000 mg/kg and the selectivity ratio at 24 h was at least 50.

For the compound `Cc1ccc(S(=O)(=O)N2C(=O)CN(c3ccccc3)C2=O)cc1` [Compound 5, 1-phenyl-3-(4-toluenesulfonyl)-imidazolidin-2,4-dione], the results for the IC50 (in data set [1] (setting [4]); at cathepsin G (setting [6])) were 7 µM and 4.5 µM, respectively.

For the compound `O=C1CN(c2ccccc2)C(=O)N1C(=O)c1ccccc1Cl` [Compound 10, 3-(2-chlorobenzoyl)-1-phenyl-imidazolidin-2,4-dione], the half-maximal inhibitory concentration (IC50) in data set [1] (setting [4]) amounted to 3.5 µM; on Human cardiac chymase (setting [5]) it was 3.7 µM; on cathepsin G (setting [6]) it was 0.96 µM.

In the case of `O=C1CN(c2ccccc2)C(=O)N1C(=O)c1ccc(-c2ccccc2)cc1` [Compound 15, 3-(4-phenylbenzoyl)-1-phenyl-imidazolidin-2,4-dione], the IC50 in data set [1] (setting [4]) was 6.9 µM; at Human cardiac chymase (setting [5]) it was 14 µM; at cathepsin G (setting [6]), 3.2 µM.

Turning to `COc1cccc(S(=O)(=O)N2C(=O)CN(c3ccccc3)C2=O)c1` [Compound 20, 1-phenyl-3-(3-methoxybenzenesulfonyl)-imidazolidin-2,4-dione], the 50% inhibitory concentration (IC50) was found to be 3.7 µM in data set [1] (setting [4]) and 8 µM at cathepsin G (setting [6]).

Turning to `O=C1CN(c2ccccc2)C(=O)N1S(=O)(=O)c1cccc(Oc2ccccc2)c1` [Compound 25, 3-(3-phenoxybenzenesulfonyl)-1-phenyl-imidazolidin-2,4-dione], the IC50 turned out to be 1.4 µM in data set [1] (setting [4]) and 3.3 µM on cathepsin G (setting [6]).

Turning to `O=C1CN(c2ccc(Oc3ccccc3)cc2)C(=O)N1S(=O)(=O)c1ccc(Cl)cc1` [Compound 30, 3-(4-chlorobenzenesulfonyl)-1-(4-phenoxyphenyl)-imidazolidin-2,4-dione], the IC50 in data set [1] (setting [4]) came out at 39 µM; on cathepsin G (setting [6]), 4.8 µM.

Regarding `COC(=O)c1cccc(S(=O)(=O)N2C(=O)CN(c3ccccc3)C2=O)c1` [Compound 35, 3-(3-methoxycarbonylbenzenesulfonyl)1-phenyl-imidazolidin-2,4-dione], in data set [1] (setting [4]), the IC50 was 1.8 µM.

On to `O=C(O)COc1ccc(S(=O)(=O)N2C(=O)CN(c3ccccc3)C2=O)cc1` [Compound 40, 3-(4-carboxymethyloxybenzenesulfonyl)-1-phenyl-imidazolidin-2,4-dione], for which the IC50 in data set [1] (setting [4]) stood at 34 µM; at Human cardiac chymase (setting [5]), 10 µM; on cathepsin G (setting [6]), 7 µM.

On to `C=CCOC(=O)Cc1cccc(S(=O)(=O)N2C(=O)CN(c3ccccc3)C2=O)c1` [Compound 45, 3-(3-allyloxycarbonylmethylbenzenesulfonyl)-1-phenyl-imidazolidin-2,4-dione], for which the IC50 is 3.5 µM in data set [1] (setting [4]), 0.45 µM at Human cardiac chymase (setting [5]) and 4.5 µM at cathepsin G (setting [6]).

In the case of `CN1CCN(C(=O)Cc2ccc(S(=O)(=O)N3C(=O)CN(c4ccccc4)C3=O)cc2)CC1` [Compound 50, 3-(4-N-methylpiperazylcarbonyl-methylbenzenesulfonyl)-1-phenyl-imidazolidin-2,4-dione], the results for the half-inhibitory concentration (IC50) (in data set [1]; against Human cardiac chymase; on cathepsin G) were 5.2 µM, 0.85 µM and 11 µM, respectively.

Take `CC(C)(C)OC(=O)c1cccc(N2CC(=O)N(S(=O)(=O)c3ccc(Cl)cc3)C2=O)c1` [Compound 55]: the half-maximal inhibitory concentration (IC50) worked out at 70 µM in data set [1] (setting [4]), 15 µM at Human cardiac chymase (setting [5]) and 9.8 µM at cathepsin G (setting [6]).

In data set [1], `Cc1ccc(N2CC(=O)N(S(=O)(=O)c3ccc(C)c(C)c3)C2=O)cc1C` [Compound 60] came in with an inhibition at 100 µM of 33.6%. In addition, the half-maximal inhibitory concentration (IC50) came out at 0.06 µM on Human cardiac chymase (setting [5]) and 1.7 µM on cathepsin G (setting [6]).

`C=CCOC(=O)c1ccc(S(=O)(=O)N2C(=O)CN(c3ccc(C)c(C)c3)C2=O)cc1` [Compound 65, 3-(4-allyloxycarbonylbenzenesulfonyl)-1-(3,4-dimethylphenyl)-imidazolidin-2,4-dione]: the IC50 in data set [1] (setting [4]) is 8.5 µM; on Human cardiac chymase (setting [5]), 0.027 µM; on cathepsin G (setting [6]) it was 1.9 µM.

On to `O=C1CN(c2ccccc2)C(=O)N1S(=O)(=O)c1cccc2ccccc12` [Compound 70, 3-(1-naphthysulfonyl)-1-(phenyl)-imidazolidin-2,4-dione], for which the IC50 came out at 1.6 µM in data set [1] (setting [4]), 0.55 µM at Human cardiac chymase (setting [5]) and 1.8 µM at cathepsin G (setting [6]).

Turning to `O=C1CN(c2ccc(Cl)c(Cl)c2)C(=O)N1S(=O)(=O)c1ccc2ccccc2c1` [Compound 75, 1-(3,4-dichlorophenyl)-3-(2-naphthylsulfonyl)imidazolidin-2,4-dione], the half-inhibitory concentration (IC50) in data set [1] (setting [4]) stood at 2.4 µM; on Human cardiac chymase (setting [5]), 0.047 µM; at cathepsin G (setting [6]) it was 0.52 µM.

As for `O=C1CN(c2cnc3ccccc3c2)C(=O)N1S(=O)(=O)c1ccc(Cl)cc1` [Compound 80, 3-(4-chlorobenzenesulfonyl)-1-(3-quinolyl)-imidazolidin-2,4-dione], the results for the IC50 (in data set [1] (setting [4]); on Human cardiac chymase (setting [5]); at cathepsin G (setting [6])) were 90 µM, 0.17 µM and 19 µM, respectively.

In the case of `CC(C)C[C@H](NC(=O)[C@@H](NC(=O)N[C@@H](Cc1ccccc1)C(=O)O)[C@@H]1CCN=C(N)N1)C(=O)N[C@H](C=O)Cc1ccccc1` [chymostatin], the “inhibition of the enzymatic activity of chymase, in words” value in the data set on chymase is recorded as “inhibited by chymostatin”. Also, the “decomposition of peptide linkage in vivo” value in data set [2] is recorded as “easily decomposed in vivo”.

For `CCOC(=O)[C@H](CCc1ccccc1)N[C@H]1CCCN2CCC[C@@H](C(=O)O)N2C1=O` [cilazapril], the “prophylactic effect on vascular restenosis after PTCA versus placebo” value in data set [3] is “no statistically significant difference”.

The term IC50 denotes the point on the concentration scale where inhibition reaches its midpoint. The term LD50 denotes the dose at which mortality reaches 50%. Lower therefore signals a more toxic substance. By inhibition is commonly meant the share of the control response that was lost under treatment. Higher therefore signals strong suppression.
